The record followed here is patent publication US11685720B2, “Salt forms of URAT-1 inhibitors” (INVENTISBIO CO., LTD., priority 2018, dated 2023).

Structures are written as SMILES. In brackets after ≈: the same amount, converted by molar mass.

In general, solubility refers to the dissolved amount per volume that the medium holds. A low value points to little dissolved substance.

What all share (type): physicochemical
A short description of series [1]: Solubility test by visual observation. To be noted: thermodynamic from solid; for solubility: both water and pH 6.8 buffer; for solubility at 0.5 h: visual observation. The procedure:
The solubilities of 1-Na and 1-K salts were very high, so the solubility was determined by visual observation. Weighed about 5 mg of sample solid (1-Na or 1-K salt) into a 2 mL of vial, and then added 5 uL of pH 6.8 buffer solution or water each time until the solids was dissolved.
(§1) The solubilities of the three salts and the Compound 1 were studied in pH 6.8 buffer and water, and the data was summarized in Table 5.

Series [2] is described as follows: Dynamic moisture sorption (DVS). To be noted: at 80% RH. The procedure:
DYNAMIC MOISTURE SORPTION: Dynamic moisture adsorption and desorption were studied using IGA sorp (Hiden Isochema Ltd. Warrington, UK). About 3-5 mg of prepared sample was placed in a sample basket and hung in the measuring chamber of an IGA Sorp. For an isotherm test, the chamber temperature is maintained by a water bath at constant 25±1° C. The sample was tested at a targeted RH of 10 to 90% full cycle in step mode. The analysis was performed in 10% RH increments. Time duration at each RH was set as min.30 minutes to max. 120 min, so that the sample could reach equilibrium with the chamber environment. Data was collected in 3 minutes increment.

The nature of series [3]: Solubility test, suspension filtered and filtrate analyzed by HPLC. The settings on record: thermodynamic from solid, 25° C. How it is done: The suspension was centrifuged under 200 rpm at 25° C., and 0.3 mL to 0.5 mL of […]. At each time point, the suspension was filtered to remove solid, and the filtrate was analyzed by HPLC.
as §1

In series [1] (aqueous buffer), `N#Cc1ccc(-c2cnccc2SCC2(CC(=O)[O-])CC2)cc1.[K+]` [1-K salt, potassium 2-(1-(((3-(4-cyanophenyl)pyridin-4-yl)thio)methyl)cyclopropyl)acetate] registered a solubility greater than 400000 µg/mL. For the same molecule, the solubility at 0.5 h in series [1] (aqueous buffer, pH 6.8 buffer) was greater than 400000 µg/mL; in series [1] (water) it was greater than 400000 µg/mL. Besides, in series [2], the “Water adsorbed (hygroscopicity)” value amounted to 50.63%.
Consider `N#Cc1ccc(-c2cnccc2SCC2(CC(=O)[O-])CC2)cc1.[Na+]` [1-Na salt, sodium 2-(1-(((3-(4-cyanophenyl)pyridin-4-yl)thio)methyl)cyclopropyl)acetate], for which the solubility in series [1] (aqueous buffer) is greater than 400000 µg/mL. The solubility at 0.5 h in series [1] (aqueous buffer, pH 6.8 buffer) was greater than 400000 µg/mL; in series [1] (water), greater than 400000 µg/mL. The “Water adsorbed (hygroscopicity)” value in series [2] came out at 8.28%.
`N#Cc1ccc(-c2cnccc2SCC2(CC(=O)O)CC2)cc1` [Compound 1, 2-(1-(((3-(4-cyanophenyl)pyridin-4-yl)thio)methyl)cyclopropyl)acetic acid]: in series [3] (aqueous buffer, pH 6.8 buffer), the solubility at 0.5 h is 83 µg/mL (≈ 256 µM) and the solubility at 2 h is 84 µg/mL (≈ 259 µM). In series [3] (water), the concentration in solution (solubility at 0.5 h) was 19 µg/mL (≈ 58.6 µM) and the solubility at 2 h is 34 µg/mL (≈ 105 µM).
